Measurements: patent US10836769B2, “Substituted pyrrolizine compounds and uses thereof” (Gilead Sciences, Inc., priority 2018, dated 2020)
≈ marks a conversion by molar mass, not a printed value. Where two headings read alike, the source gives them in different places.

Tests used:
HBV = HBV DNA Quantification Assay; format: cell-based; settings: HepG2 cell line overexpressing NTCP infected with HBV AD38 viral particles, HBV DNA in culture supernatant after 5 days, geometric mean of a minimum of four determinations, read-out: EC50
Protocol: A HepG2 cell line overexpressing the HBV virus attachment receptor sodium-taurocholate cotransporting polypeptide (NTCP) was grown to confluency in DMEM growth medium, Dulbecco's Modified Eagle Medium without sodium pyruvate (Life Technologies, Rockville, Md.) supplemented with 10% FBS (Thermo Scientific, Waltham, Md.), 1% penicillin/streptomycin (Life Technologies, Rockville, Md.) and 2 mM L-glutamine (Life Technologies, Rockville, Md.) in T175 flasks. Cells were infected with HBV AD38 viral particles (Texcell, Frederick, USA) at 4000 genome equivalents per cell. After allowing viral infection to take place for 4 days, the infected cells were harvested from the flasks by trypsinization, washed twice with OptiMEM (Life Technologies, Rockville, Md.) and re-suspended in DMEM containing 2% FBS and 1% DMSO at a density of 0.25E6 cells/ml. Infected cells were seeded on 384 well collagen coated plates (Greiner, Austria) at a density of 20,000 cells/well containing serially diluted compounds of the present disclosure or DMSO (0.5%) in a final volume of 80 μl. The assay plates were incubated for a period of 5 days and the antiviral activity of the test compounds were assayed by detecting the presence of HBV DNA in the culture supernatant using the QuantiGene™ 2.0 nucleic acid quantification kit (Affymetrix, Santa Clara, Calif.).
The culture supernatant was harvested and treated with lysis buffer containing Proteinase K (Affymetrix, Santa Clara, Calif.). The supernatant was incubated with HBV viral DNA specific probes (Affymetrix, Santa Clara, Calif.) for 30 minutes at 55° C. This was followed by addition of 0.2M NaOH for 30 minutes at room temperature to denature the DNA, followed by addition of Neutralization buffer (Affymetrix, Santa Clara, Calif.). The resulting lysed and neutralized supernatant was then added to QuantiGene™ 2.0 384 well plates coated with capture oligonucleotides and incubated overnight at 55° C. The HBV specific probe set consists of Capture Extender oligonucleotides (CE's) and blocking probes. Following the overnight incubation, the wells were incubated for one hour sequentially with a Pre-Amplifier, Amplifier and Labeled probes conjugated to alkaline phosphatase with a wash step between incubations. After the final wash step, the alkaline phosphatase substrate (Luminol APS5) was added and the resulting luminescence signal was read in an EnVision Multilabel Plate Reader (PerkinElmer, Santa Clara, Calif.). The EC50 values were calculated from the fit of the dose-response curves to a four-parameter equation. All EC50 values represent geometric mean values of a minimum of four determinations.

Kinetic Solubility = format: physicochemical; settings: 0.2 to 100 μM, BD Gentest Solubility Scanner
Protocol: The 10 mM DMSO stock solution of the test compound is serially diluted into a 96-well “DMSO stock dilution plate”. Then Pipette 2 μL from the DMSO stock dilution plate into the “Sample plate” and dilute with 198 µL of the assay media to generate the final concentrations of the test compound ranging from 0.2 to 100 μM. The “Sample plate” is run on a BD Gentest Solubility Scanner.

[1] = aqueous buffer, kinetic from dmso stock, pH = 7, read-out: Kinetic Solubility at pH = 7
[2] = simulated gastric fluid, kinetic from dmso stock, pH = 1, read-out: Kinetic Solubility at pH = 1

Work on Cc1c(C(=O)Nc2ccc(F)c(C(F)F)c2)c2n(c1C(=O)C(=O)NC1(c3c[nH]nn3)CC(F)(F)C1)CCC2 [Example 37, 5-(2-((3,3-Difluoro-1-(1H-1,2,3-triazol-4-yl)cyclobutyl)amino)-2-oxoacetyl)-N-(3-(difluoromethyl)-4-fluorophenyl)-6-methyl-2,3-dihydro-1H-pyrrolizine-7-carboxamide] yielded an EC50 (HBV; Hepatitis B virus, 120 h) of 3.6 nM, a solubility kinetic (Kinetic Solubility; [1]) of 5.2 µM (≈ 2.79 µg/mL) and a solubility kinetic (Kinetic Solubility; [2]) of 7.1 µM (≈ 3.81 µg/mL).

Cc1c(C(=O)Nc2cc(F)c(F)c(F)c2)c2n(c1C(=O)C(=O)NC1(c3nncs3)CC1)CCC2 [Example 29, 5-(2-((1-(1,3,4-thiadiazol-2-yl)cyclopropyl)amino)-2-oxoacetyl)-6-methyl-N-(3,4,5-trifluorophenyl)-2,3-dihydro-1H-pyrrolizine-7-carboxamide] showed an EC50 (HBV; Hepatitis B virus, 120 h) of 14.3 nM, a solubility kinetic (Kinetic Solubility; [1]) of 4.5 µM (≈ 2.2 µg/mL) and a solubility kinetic (Kinetic Solubility; [2]) of 88.7 µM (≈ 43.4 µg/mL).

In the case of Cc1c(C(=O)Nc2ccc(F)c(C#N)c2)c2n(c1C(=O)C(=O)NC1(c3cn(C)nn3)CC(F)(F)C1)CCC2 [Example 5, N-(3-cyano-4-fluorophenyl)-5-(2-((3,3-difluoro-1-(1-methyl-1H-1,2,3-triazol-4-yl)cyclobutyl)amino)-2-oxoacetyl)-6-methyl-2,3-dihydro-1H-pyrrolizine-7-carboxamide], the EC50 (HBV; Hepatitis B virus, 120 h) is reported as 43.6 nM, the solubility kinetic (Kinetic Solubility; [1]) is reported as 20.7 µM (≈ 10.9 µg/mL) and the solubility kinetic (Kinetic Solubility; [2]) is reported as 11.3 µM (≈ 5.94 µg/mL).

Cc1c(C(=O)Nc2ccc(F)c(F)c2)c2n(c1C(=O)C(=O)NC1(CO)CC(F)(F)C1)CCC2 [Example 19, 5-(2-((3,3-difluoro-1-(hydroxymethyl)cyclobutyl)amino)-2-oxoacetyl)-N-(3,4-difluorophenyl)-6-methyl-2,3-dihydro-1H-pyrrolizine-7-carboxamide] gave an EC50 (HBV; Hepatitis B virus, 120 h) of 20.2 nM, a solubility kinetic (Kinetic Solubility; [1]) of 62 µM (≈ 29 µg/mL) and a solubility kinetic (Kinetic Solubility; [2]) of 68.7 µM (≈ 32.1 µg/mL).

Cc1c(C(=O)Nc2cc(F)c(F)c(F)c2)c2n(c1C(=O)C(=O)NC1(c3cn(C)nn3)CC(F)(F)C1)CCC2 [Example 4] gave an EC50 (HBV; Hepatitis B virus, 120 h) of 7.5 nM, a solubility kinetic (Kinetic Solubility; [1]) of 39.9 µM (≈ 21.4 µg/mL) and a solubility kinetic (Kinetic Solubility; [2]) of 43.3 µM (≈ 23.2 µg/mL).

For Cc1c(C(=O)Nc2ccc(F)cc2)c2n(c1C(=O)C(=O)NC1(c3cnn(C)n3)CC(F)(F)C1)CCC2 [Example 9, 5-(2-((3,3-difluoro-14(2-methyl-2H-1,2,3-triazol-4-yl)cyclobutyl)amino)-2-oxoacetyl)-N-4(4-fluorophenyl)-6-methyl-2,3-dihydro-1H-pyrrolizine-7-carboxamide], the EC50 (HBV) was 5.8 nM, the solubility kinetic (Kinetic Solubility; pH = 1, read-out: Kinetic Solubility at pH = 1) was 2.8 µM (≈ 1.4 µg/mL) and the solubility kinetic (Kinetic Solubility; pH = 7, read-out: Kinetic Solubility at pH = 7) was 2.3 µM (≈ 1.15 µg/mL).

In the case of Cc1c(C(=O)Nc2ccc(F)cc2)c2n(c1C(=O)C(=O)NC1(c3nncs3)CC(F)(F)C1)CCC2 [Example 8], the EC50 (HBV; Hepatitis B virus, 120 h) is reported as 4.7 nM, the solubility kinetic (Kinetic Solubility; [1]) is reported as 3.9 µM (≈ 1.96 µg/mL) and the solubility kinetic (Kinetic Solubility; [2]) is reported as 10.5 µM (≈ 5.29 µg/mL).

Compound Cc1c(C(=O)Nc2ccc(F)c(F)c2)c2n(c1C(=O)C(=O)NC1(c3nncs3)CC(F)(F)C1)CCC2 [Example 3, 5-(2-((3,3-difluoro-1-(1,3,4-thiadiazol-2-yl)cyclobutyl)amino)-2-oxoacetyl)-N-(3,4-difluorophenyl)-6-methyl-2,3-dihydro-1H-pyrrolizine-7-carboxamide] has an EC50 (HBV; Hepatitis B virus, 120 h) of 2.3 nM, a solubility kinetic (Kinetic Solubility; [1]) of 1.1 µM (≈ 0.574 µg/mL) and a solubility kinetic (Kinetic Solubility; [2]) of 1.5 µM (≈ 0.782 µg/mL).

In the case of CNC(=O)C1(NC(=O)C(=O)c2c(C)c(C(=O)Nc3ccc(F)c(F)c3)c3n2[C@H]2C[C@H]2C3)CC(F)(F)C1 [Example 24], the EC50 (HBV; Hepatitis B virus, 120 h) is reported as 177 nM, the solubility kinetic (Kinetic Solubility; [1]) is reported as 87.1 µM (≈ 44.1 µg/mL) and the solubility kinetic (Kinetic Solubility; [2]) is reported as 99.4 µM (≈ 50.3 µg/mL).

Cc1c(C(=O)Nc2ccc(F)c(F)c2)c2n(c1C(=O)C(=O)NC1(C(N)=O)CC(F)(F)C1)CCC2 [Example 44, 5-(2-((1-carbamoyl-3,3-difluorocyclobutyl)amino)-2-oxoacetyl)-N-(3,4-difluorophenyl)-6-methyl-2,3-dihydro-1H-pyrrolizine-7-carboxamide] showed an EC50 (HBV; Hepatitis B virus, 120 h) of 15.2 nM, a solubility kinetic (Kinetic Solubility; [1]) of 49.8 µM (≈ 23.9 µg/mL) and a solubility kinetic (Kinetic Solubility; [2]) of 90.3 µM (≈ 43.4 µg/mL).
